Data: patent US20240327415A1, “Multicomponent Complexes, Including Salts, Crystalline Forms, and Hydrates and Solvates of ENT1 Inhibitors” (iTeos Belgium SA, priority 2023, published 2024)

Legend:
Format in all cases: physicochemical
[1] = Variable Humidity X-Ray Powder Diffraction (VH-XRPD); conditions: Form 3: after extended exposure
Protocol: (§1) In the examples below, VH-XRPD analysis was carried out on a Philips X'Pert Pro Multipurpose diffractometer equipped with a humidity chamber. The samples were scanned between 4 and 36° 2θ using Cu K radiation (α1λ=1.54060 Å; α2=1.54443 Å; β=1.39225 Å; α1: α2 ratio=0.5; most, if not all, B radiation is removed from the beam using an X-ray mirror) running in Bragg-Brentano geometry (step size 0.008° 2θ) using 40 kV/40 mA generator settings. Measurements were carried out from 2-90% RH, with a final measurement taken at 40% RH.
as §1, with “VH-XRPD” for “In the examples below, VH-XRPD”, “radiation (α1 λ=1.54060” for “radiation (α1λ=1.54060”, “Å; α1:α2” for “Å; α1: α2”, “all, β” for “all, B”, “from 6-90% relative humidity (RH),” for “from 2-90% RH,”

[2] = salt screen, XRPD of damp, dried and 40° C./75% RH stored samples (Salt Preparation Methods 1 and 2); parameters: key to XRPD Analysis Damp/Dry: A = amorphous; Evap. = isolated via evaporation; conditions: p-Toluenesulfonic acid, (evap.)
Protocol: (§2) Salt Preparation Method 1: Approximately 25 mg of Compound 1 (free base) was weighed out into 1.5 mL screw-cap vials and a stirrer bar was added. For solid counterions, the appropriate amount of acid (1.0 or 2.0 equiv.) was weighed into separate 1.5 mL screw-cap vials. 100 μL of the appropriate solvent system was added to both the Compound 1 and the solid counterions. Stock solutions of liquid counterions were prepared, such that 100 μL contained 1.0 or 2.0 equiv. of acid. See counterion and solvent lists in Table 60 and Table 61 respectively.
(§3) The samples were stirred at 40° C. for 5-10 min and then the acid solutions were added to Compound 1, rinsing out the transfer vial with a further 50 μL of solvent. […] Experiments were temperature cycled between 40° C. and 5° C. (1 h hold; 0.1° C./min ramp/cool) for ca. 24-68 h. Anti-solvent addition (ASA) was carried out to slurries at 5° C. then experiments were heated to 30° C. over 1 h. ASA was carried out at 30° C. or 40° C. where clear solutions or gums were observed.
(§4) Temperature cycling was then continued for ca. 16-69 h, followed by further ASA and temperature cycling if required. Material was isolated at 5° C. and analyzed damp by XRPD. All isolated material was dried under vacuum at ca. 40° C. for ca. 17-91 h then re-analyzed by XRPD. The XRPD plate was stored at 40° C./75% RH for 24-48 h and then samples re-analyzed. Solutions were stored uncapped at ambient temperature to evaporate. Any residual solids were analyzed by XRPD.
(§5) Salt Preparation Method 2: The general procedure adopted in preparing the potential salts is outlined below. A known mass of Compound 1 (free base) and a known volume of the appropriate solvent system were added to 20 mL scintillation vials. The required mol. equiv. of the appropriate counterions were added to the vials as solutions or slurries in the corresponding solvent system.
(§6) The experiments were stirred at 40° C. for ca. 1 h, and then temperature cycled between 40° C. and 5° C. with 0.1° C./min ramp and 1 h hold between each step. Anti-solvent additions and subsequent slurrying at 5° C. were employed in order to facilitate crystallization. […] The damp and dried solids were subsampled and analyzed by XRPD. Where applicable, the dried solids were stored at 40° C./75% RH for 24-48 h in order to improve the crystallinity and/or facilitate solid form conversion to the desired form.

[3] = as above; parameters: key: A = amorphous; Evap. = isolated via evaporation; conditions: p-Toluenesulfonic acid
Protocol: as §2, §3, §4, §5, §6

[4] = 1 equiv., IPA:H2O (75:25% v/v), AS tBME
[5] = 1 equiv., Acetonitrile, AS tBME
[6] = 1 equiv., Ethyl acetate, AS Heptane
[7] = 2 equiv., IPA:H2O (75:25% v/v), AS tBME
[8] = 2 equiv., Acetonitrile, AS tBME
[9] = 2 equiv., Ethyl acetate, AS Heptane

With COc1cc(C(=O)O[C@@H]2CCCOc3cc(cc(OC)c3OC)C(=O)NCCCN3CCCN(CC2)CC3)cc(OC)c1OC.O=S(=O)(O)O.O=S(=O)(O)O [crystalline Form 5 Compound 1 di(hydrogen sulfate)] the “relative humidity at which conversion to crystalline Form 2 Compound 1 di(hydrogen sulfate) trihydrate is observed” value [1] was no less than 10 % RH.

With Cc1ccc(S(=O)(=O)O)cc1 [p-Toluenesulfonic acid, 1 equiv.] the “XRPD Analysis Damp/Dry” value ([2]; 1 equiv., Ethanol, AS Heptane) was “A (evap.)”, the “XRPD Analysis Damp/Dry” value [2, 4] was “A (evap.)” and the “XRPD Analysis 40° C. 75% RH” value [3, 5] was “A”. The “XRPD Analysis Damp” value [3, 5] was “A”, the “XRPD Analysis Dry” value [3, 5] was “A” and the “XRPD Analysis 40° C. 75% RH” value ([3]; 1 equiv., Ethanol, AS Heptane) was “A”. The “XRPD Analysis 40° C. 75% RH” value [3, 6] was “A”, the “XRPD Analysis Damp” value [3, 6] was “A” and the “XRPD Analysis Dry” value [3, 6] was “A”. The “XRPD Analysis 40° C. 75% RH” value [3, 4] was “A”, the “XRPD Analysis 40° C. 75% RH” value ([3]; 1 equiv., MEK, AS Heptane) was “A” and the “XRPD Analysis Damp” value ([3]; 1 equiv., MEK, AS Heptane) was “A”. For the same molecule, the “XRPD Analysis Dry” value ([3]; 1 equiv., MEK, AS Heptane) was “A”, the “XRPD Analysis 40° C. 75% RH” value ([3]; 1 equiv., THF, AS Heptane) was “A” and the “XRPD Analysis Damp” value ([3]; 1 equiv., THF, AS Heptane) was “A”. The “XRPD Analysis Dry” value ([3]; 1 equiv., THF, AS Heptane) was “A”.

In the case of Cc1ccc(S(=O)(=O)O)cc1 [p-Toluenesulfonic acid, 2 equiv.], the “XRPD Analysis Damp/Dry” value [2, 7] is reported as “A (evap.)”, the “XRPD Analysis 40° C. 75% RH” value [3, 8] is reported as “A” and the “XRPD Analysis Damp” value [3, 8] is reported as “A”. The “XRPD Analysis Dry” value [3, 8] was “A”, the “XRPD Analysis 40° C. 75% RH” value ([3]; 2 equiv., Ethanol, AS Heptane) was “A” and the “XRPD Analysis Damp” value ([3]; 2 equiv., Ethanol, AS Heptane) was “A”. The “XRPD Analysis Dry” value ([3]; 2 equiv., Ethanol, AS Heptane) was “A”, the “XRPD Analysis 40° C. 75% RH” value [3, 9] was “A” and the “XRPD Analysis Damp” value [3, 9] was “A”. The “XRPD Analysis Dry” value [3, 9] was “A”, the “XRPD Analysis 40° C. 75% RH” value [3, 7] was “A” and the “XRPD Analysis 40° C. 75% RH” value ([3]; 2 equiv., MEK, AS Heptane) was “A”. The “XRPD Analysis Damp” value ([3]; 2 equiv., MEK, AS Heptane) was “A”, the “XRPD Analysis Dry” value ([3]; 2 equiv., MEK, AS Heptane) was “A” and the “XRPD Analysis 40° C. 75% RH” value ([3]; 2 equiv., THF, AS Heptane) was “A”. The “XRPD Analysis Damp” value ([3]; 2 equiv., THF, AS Heptane) was “A” and the “XRPD Analysis Dry” value ([3]; 2 equiv., THF, AS Heptane) was “A”.
